Measurements from publication PMC9502272, “A Metabolomics Approach for Predicting OATP1B-Type Transporter-Mediated Drug–Drug Interaction Liabilities” (Pharmaceutics, 2022).
Structures can show the parent of a compound that is named as a salt.

Molecular target: T1, Oatp1b2 (Mus musculus, UniProt Q9JJL3)
T1 sequence (Q9JJL3 1-689): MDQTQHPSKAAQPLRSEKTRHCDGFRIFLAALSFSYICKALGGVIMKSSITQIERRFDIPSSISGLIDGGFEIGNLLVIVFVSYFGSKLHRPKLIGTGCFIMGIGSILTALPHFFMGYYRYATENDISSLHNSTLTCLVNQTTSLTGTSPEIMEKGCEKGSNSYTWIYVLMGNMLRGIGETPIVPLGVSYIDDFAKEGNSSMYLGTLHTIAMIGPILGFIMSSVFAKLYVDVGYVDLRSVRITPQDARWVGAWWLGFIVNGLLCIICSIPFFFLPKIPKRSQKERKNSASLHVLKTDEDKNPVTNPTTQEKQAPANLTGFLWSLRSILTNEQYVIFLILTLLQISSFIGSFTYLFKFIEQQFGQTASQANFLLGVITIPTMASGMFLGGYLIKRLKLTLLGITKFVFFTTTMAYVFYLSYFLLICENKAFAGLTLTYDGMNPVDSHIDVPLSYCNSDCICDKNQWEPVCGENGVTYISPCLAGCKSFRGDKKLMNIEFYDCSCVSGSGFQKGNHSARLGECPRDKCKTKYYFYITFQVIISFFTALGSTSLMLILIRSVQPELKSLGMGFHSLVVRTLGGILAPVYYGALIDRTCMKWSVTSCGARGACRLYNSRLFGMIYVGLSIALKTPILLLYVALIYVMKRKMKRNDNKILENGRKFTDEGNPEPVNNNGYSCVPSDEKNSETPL
Experiment: Untargeted metabolomics of plasma from untreated wild-type and Oatp1b2(−/−) mice
Details: for Fold of Change KO/WT: plasma of untreated Oatp1b2-deficient (KO) vs wild-type (WT) mice, semi-quantitative, positive = higher in KO, n = 6 per group; for Mean value KO: plasma of untreated Oatp1b2-deficient mice; for Mean value KO / Mean value WT: raw area counts rescaled to median = 1; for Mean value WT: plasma of untreated wild-type mice

Fold of Change KO/WT | Mean value KO | Mean value WT | Compound
1.46 | 1.24 | .847 | CCCCCCCC/C=C\CCCCCCCC(=O)O[C@H](COC(=O)CCCCCCCCCCCCCCC)COP(=O)(O)OCCN [1-palmitoyl-2-oleoyl-GPE (16:0/18:1)]
2.10 | 1.57 | .749 | O=C(O)CCCCCCCCCCCCCCC(=O)O [hexadecanedioate (C16-DC)]
1.48 | 1.19 | .804 | O=S(=O)(O)Oc1c[nH]c2ccccc12 [3-indoxyl sulfate]
2.46 | 0.940 | .382 | C[C@H](CCC(=O)O)[C@H]1CC[C@H]2[C@@H]3C[C@H](O)[C@@H]4C[C@@H](O)CC[C@]4(C)[C@H]3CC[C@]12C [isohyodeoxycholate]
1.25 | 1.10 | .879 | CCC(CO)C(=O)O (stereo not shown) [3-hydroxy-2-ethylpropionate]
1.52 | 1.32 | .868 | CCCCCCC(=O)NCC(=O)O [heptanoyl glycine]
1.40 | 1.31 | .931 | CC(=O)N[C@@H](CC[S+](C)[O-])C(=O)O (stereo partly shown) [N-acetylmethionine sulfoxide]
1.14 | 1.09 | .960 | CCCCCCCCCCCCCCCCCC(=O)O[C@H](COC(=O)CCCCCCCCCCCCCCC)COP(=O)([O-])OCC[N+](C)(C)C [1-palmitoyl-2-stearoyl-GPC (16:0/18:0)]
12.7 | 2.35 | .185 | octadecenedioylcarnitine (C18:1-DC)
3.94 | 2.14 | .543 | dodecenedioate (C12:1-DC)
 |  | .940 | sphingomyelin (d18:2/16:0, d18:1/16:1)
1.16 | 1.00 | .860 | C[N+](C)(C)CC(CC(=O)[O-])OC(=O)CCCCCCCCCCCCCCCCC(=O)O (stereo not shown) [octadecanedioylcarnitine (C18-DC)]
6.23 | 2.26 | .362 | C[C@H](CCC(=O)O)[C@H]1CC[C@H]2[C@@H]3C(=O)C[C@@H]4C[C@H](O)CC[C@]4(C)[C@H]3C[C@H](O)[C@]12C [7-ketodeoxycholate]
4.27 | 1.96 | .459 | O=C(O)CCCCCCCCCCCCC(=O)O [tetradecanedioate (C14-DC)]
5.25 | 1.48 | .282 | C=CC1=C(C)/C(=C/c2[nH]c(Cc3[nH]c(/C=C4\NC(=O)C(C)=C4C=C)c(C)c3CCC(=O)O)c(CCC(=O)O)c2C)NC1=O [bilirubin (Z,Z)]
2.01 | 1.37 | .681 | CCCCC/C=C\C/C=C\C/C=C\C/C=C\CCCC(=O)O[C@H](COC(=O)CCCCCCC/C=C\CCCCCCCC)COP(=O)(O)OC1C(O)C(O)C(O)C(O)C1O (stereo partly shown) [1-oleoyl-2-arachidonoyl-GPI (18:1/20:4)]
1.95 | 1.36 | .696 | CCCCCC/C=C\CCCCCCCC(=O)O[C@H](CO)COP(=O)([O-])OCC[N+](C)(C)C [2-palmitoleoyl-GPC (16:1)]
8.12 | 2.97 | .366 | O=C(O)CCCCCCCCCCC(=O)O [dodecanedioate (C12-DC)]
1.77 | 1.28 | .723 | CCCCCCCCCCCCCCC(=O)O[C@H](CC(=O)[O-])C[N+](C)(C)C [pentadecanoylcarnitine (C15)]

Fold of Change KO/WT | Mean value KO | Mean value WT | Compound
1.39 | 1.26 | .904 | CCCCCCCCCCCCCC(=O)O[C@H](CC(=O)[O-])C[N+](C)(C)C [myristoylcarnitine (C14)]
1.23 | 1.17 | .950 | N[C@@H](CCC(=O)NCC(=O)O)C(=O)O [gamma-glutamylglycine]
6.12 | 1.17 | .191 | C=CC1=C(C)/C(=C/c2[nH]c(Cc3[nH]c(/C=C4\NC(=O)C(C)=C4C=C)c(C)c3CCC(=O)O)c(CCC(=O)O)c2C)NC1=O [bilirubin (E,E)]
14.7 | 3.94 | .269 | C[C@H](CCC(=O)O)[C@H]1CC[C@H]2[C@@H]3C[C@H](O)[C@@H]4C[C@H](O)CC[C@]4(C)[C@H]3CC[C@]12C [hyodeoxycholate]
1.56 | 1.40 | .900 | CCCCCCCC/C=C\CCCCCCCC(=O)O[C@H](CC(=O)[O-])C[N+](C)(C)C [oleoylcarnitine (C18:1)]
1.34 | 1.17 | .874 | CC/C=C\C/C=C\C/C=C\C/C=C\C/C=C\C/C=C\CCC(=O)O[C@H](COC(=O)CCCCCCC/C=C\CCCCCCCC)COP(=O)([O-])OCC[N+](C)(C)C [1-oleoyl-2-docosahexaenoyl-GPC (18:1/22:6)]
2.09 | 1.58 | .756 | tetradecadienedioate (C14:2-DC)
1.78 | 1.30 | .732 | CCCCCCCC/C=C\CCCCCCCC(=O)OC[C@@H](O)COP(=O)([O-])OCC[N+](C)(C)C [1-oleoyl-GPC (18:1)]
13.1 | 1.16 | .0890 | C[C@H](CCC(=O)O)[C@H]1CC[C@H]2[C@@H]3C[C@@H](O)[C@@H]4C[C@H](O)CC[C@]4(C)[C@H]3CC[C@]12C [6-beta-hydroxylithocholate]
4.09 | 1.84 | .450 | C=CC1=C(C)/C(=C/C2=NC(=C\c3[nH]c(/C=C4\NC(=O)C(C)=C4C=C)c(C)c3CCC(=O)O)/C(CCC(=O)O)=C2C)NC1=O [biliverdin]
3.00 | 1.96 | .654 | O=C(O)CCCCCCCCCC(=O)O [undecanedioate (C11-DC)]
1.57 | 1.28 | .815 | CC(C)CCC(=O)NCC(=O)O [isocaproylglycine]
1.36 | 1.14 | .839 | sphingomyelin (d18:2/14:0, d18:1/14:1)
1.12 | 1.05 | .938 | O=C(O)C1CCCCN1 (stereo not shown) [pipecolate]
1.48 | 1.26 | .854 | CCCCC/C=C\C/C=C\C/C=C\C/C=C\CCCC(=O)O[C@H](COC(=O)CCCCCCC/C=C\C/C=C\CCCCC)COP(=O)(O)OCCN [1-linoleoyl-2-arachidonoyl-GPE (18:2/20:4)]
2.41 | 1.58 | .656 | O=C(O)CNC(=O)CCc1ccccc1 [phenylpropionylglycine]
1.46 | 1.24 | .850 | O=C(O)CC[C@H](NC(=O)Cc1ccccc1)C(=O)O [phenylacetylglutamate]
1.43 | 0.970 | .678 | C[C@H](CCC(=O)O)[C@H]1CC[C@H]2[C@@H]3CC(=O)[C@@H]4C[C@H](O)CC[C@]4(C)[C@H]3CC[C@]12C [6-oxolithocholate]

Compound | Fold of Change KO/WT | Mean value KO | Mean value WT
O=S(=O)(O)Oc1ccc(O)cc1 [hydroquinone sulfate] | 1.55 | 1.32 | .849
chenodeoxycholic acid sulfate (1) | 6.41 | 1.02 | .160
C[C@H](CCC(=O)O)[C@H]1CC[C@H]2[C@@H]3CC[C@@H]4C[C@H](O)CC[C@]4(C)[C@H]3C[C@H](OS(=O)(=O)O)[C@]12C [deoxycholic acid 12-sulfate] | 1.25 | 1.06 | .851
CCCCCCCC/C=C\CCCCCCCC(=O)OC[C@@H](O)COP(=O)(O)OCCN [1-oleoyl-GPE (18:1)] | 2.05 | 1.30 | .634
O=S(=O)(O)Oc1ccccc1 [phenol sulfate] | 1.40 | 1.23 | .879
Nc1ncnc2c1ncn2C1OC(COP(=O)(O)O)C(O)C1O (stereo not shown) [adenosine 5'-monophosphate (AMP)] | 1.12 | 1.04 | .927
